# Source: US10351559B2, “Maleate salts of a B-RAF kinase inhibitor, crystalline forms, methods of preparation, and uses therefore” (BeiGene, Ltd., priority 2015, dated 2019)
# pIC50: −log10 of the molar value. Structures can show the parent of a compound that is named as a salt.
# Assays:
# [1] = short-term stability study (1 week, 60° C. and 40° C./75% RH); assay type: physicochemical; conditions: for TRS %: sesqui-maleate salt
# Description: Weighed about 2 mg (For XRPD: 10 mg) of each of the above salts in a 40 mL glass vial, separately. The free base form was used as control. The closed samples were capped and sealed with parafilm, while the opened samples were covered by aluminum foil with pinhole. All the samples were stored in stability chamber or dry oven at the corresponding conditions (60° C. and 40° C./75% RH) for 1 week.
# [2] = target: T1, HER2 (aa676-1255) (Homo sapiens, UniProt P04626); assay: HTRF KinEASE-TK kinase assay; assay type: biochemical
# T1 construct: HER2 (aa676-1255, recombinant protein purified from insect expression system); made in house; host or cells: insect expression system
# Description: (§1) Crystalline Form A* of Compound 1 Sesqui-Maleate was tested against recombinant EGFR/EPHA2/BTK (from Carna Biosciences), ITK/TEC/SRC/PDGFR-beta/TXK/FLT3/VEGFR2/RET (from Life Technologies), and HER2 (aa676-1255, recombinant protein purified from insect expression system) in HTRF KinEASE-TK assay from Cisbio Bioassays according to the manufacturer's instructions. The assay was carried out in a reaction mixture containing kinases, ATP at KM concentration, biotinylated peptide substrate (61TK0BLC, Cisbio Bioassays) and Crystalline Form A* of Compound 1 Sesqui-Maleate. […] After reaction, stop/detection solution was added according to the manufacture's instruction. The stop/detection solution contained Eu+ cryptate conjugated antiphosphotyrosine antibody (61T66kLB, CisBio Bioassays) and Streptavidin-XL665 (610SAXLB, CisBio Bioassays) in buffer containing 25 mM Tris pH7.4, 400 mM KF, 50 mM EDTA, 0.01% BSA, 0.01% Triton X-100. The TR-FRET signals (ratio of fluorescence emission at 665 nm over emission at 620 nm with excitation at 337 nm wavelength) were recorded on a PHERAstar FS plate reader (BMG Labtech) after 1 hr incubation. Phosphorylation of biotinylated peptide substrate led to the binding of both Eu+ cryptate conjugated antiphosphotyrosine antibody and streptaviding-XL665 to the biotinylated peptide. The close proximity of the donor (Eu+ cryptate) and acceptor (XL665) fluorophore led to a high degree of fluorescence resonance energy transfer from the donor fluorophore (at 620 nm) to the acceptor fluorophore (at 665 nm). The IC50 for Crystalline Form A* of Compound 1 Sesqui-Maleate was derived from fitting the dose-response % inhibition data to the four-parameter logistic model by Graphpad Prism software.
# [3] = target: T2, VEGFR2 (Homo sapiens, UniProt P35968); assay: HTRF KinEASE-TK kinase assay; assay type: biochemical
# T2 construct: purchased Life Technologies
# Description: as §1
# [4] = target: T3, WT-EGFR (Homo sapiens, UniProt P00533); assay: HTRF KinEASE-TK kinase assay; assay type: biochemical
# T3 construct: purchased Carna Biosciences
# Description: as §1
# [5] = system: ERK phosphorylation in A375 cells; assay: cellular phospho-ERK TR-FRET assay; assay type: cell-based; conditions: Homo sapiens, A-375; B-RAF V600E mutant melanoma A375 cells, 1 h treatment
# Description: (§2) A375, Sk-Mel-28, HT29, Colo205, A431, and HCC827 cell lines were purchased from American Type Culture Collection. All the cell lines used in the cellular assays were cultured in the designated medium supplemented with 10% fetal bovine serum (FBS, Thermo Scientific), 100 units/mL penicillin (Gibco), 0.1 mg/mL streptomycin (Gibco) and in a humidified 37° C. environment with 5% CO2. Cell lines were reinstated from frozen stocks laid down within three passages from the original cells purchased and passaged no more than 30 times.
# (§3) Cellular phospho-ERK and phospho-EGFR were measured using a TR-FRET-based method. Cells were seeded at 3×10^4 per well of a 96-well plate and left to attach for 16 hours. Growth medium was then replaced with 100 μL of medium containing no serum. Cells were then treated with a 10-point titration of compound. After 1 h of compound treatment, 50 μL of lysis buffer (Cisbio) were added to each well. Plates were then incubated at room temperature with shaking for 30 min. A total of 16 μL of cell lysate from each well of a 96-well plate was transferred to a 384-well small volume white plate. Lysate from each well was incubated with 2 μL of Eu3+- or Tb3+-cryptate (donor) labeled anti-ERK or anti-EGFR antibody (Cisbio) and 2 μL of D2 (acceptor) labeled anti-phospho-ERK or anti-phospho-EGFR antibody (Cisbio) for 2 h at room temperature. FRET signals were measured using a PHERAstar FS reader (BMG Labtech). IC50 values for ERK or EGFR phosphorylation was determined using GraphPad Prism software.
# [6] = system: ERK phosphorylation in Colo205 cells; assay: cellular phospho-ERK TR-FRET assay; assay type: cell-based; conditions: Homo sapiens, COLO 205; B-RAF V600E mutant Colo205 colorectal cancer cells, 1 h treatment
# Description: as §2, §3
# [7] = system: ERK phosphorylation in HT29 cells; assay: cellular phospho-ERK TR-FRET assay; assay type: cell-based; conditions: Homo sapiens, HT-29; B-RAF V600E mutant HT29 colorectal cancer cells, 1 h treatment
# Description: as §2, §3
# [8] = system: ERK phosphorylation in Sk-Mel-28 cells; assay: cellular phospho-ERK TR-FRET assay; assay type: cell-based; conditions: Homo sapiens; B-RAF V600E mutant melanoma Sk-Mel-28 cells, 1 h treatment
# Description: as §2, §3
# [9] = nonclinical toxicity and safety pharmacology program
# Description: A comprehensive nonclinical toxicity study program, including 28-day GLP studies in rats and dogs and several investigational studies, was conducted for the evaluation of the preclinical safety of Compound 1 Sesqui-Maleate (Crystalline Form A*). These studies took account the available regulatory guidance for preclinical development of anticancer drugs.
# [10] = pharmacokinetic study (LC-MS/MS); assay type: in vivo, beagle dogs; conditions: dogs
# Excerpt: The fully-validated LC-MS/MS method was well used for the pharmacokinetic (PK) studies of Crystalline Form A* of Compound 1 Sesqui-Maleate in Sprague-Dawley rats and beagle dogs following single- and multiple-dose administrations.
# [11] = system: P450 enzymes in rat liver; assay: P450 enzyme induction; assay type: in vitro ADME
# [12] = system: drug metabolism enzymes; assay: inhibition of drug metabolism enzymes; assay type: in vitro ADME; conditions: except CYP2C8 and CYP2C19
# [13] = system: BRAF V600E and KRAS cancers; assay: Phase I clinical study; assay type: in vivo, human; conditions: capsules, 5-50 mg single doses, 25 subjects
# T2 sequence (P35968 20-1356): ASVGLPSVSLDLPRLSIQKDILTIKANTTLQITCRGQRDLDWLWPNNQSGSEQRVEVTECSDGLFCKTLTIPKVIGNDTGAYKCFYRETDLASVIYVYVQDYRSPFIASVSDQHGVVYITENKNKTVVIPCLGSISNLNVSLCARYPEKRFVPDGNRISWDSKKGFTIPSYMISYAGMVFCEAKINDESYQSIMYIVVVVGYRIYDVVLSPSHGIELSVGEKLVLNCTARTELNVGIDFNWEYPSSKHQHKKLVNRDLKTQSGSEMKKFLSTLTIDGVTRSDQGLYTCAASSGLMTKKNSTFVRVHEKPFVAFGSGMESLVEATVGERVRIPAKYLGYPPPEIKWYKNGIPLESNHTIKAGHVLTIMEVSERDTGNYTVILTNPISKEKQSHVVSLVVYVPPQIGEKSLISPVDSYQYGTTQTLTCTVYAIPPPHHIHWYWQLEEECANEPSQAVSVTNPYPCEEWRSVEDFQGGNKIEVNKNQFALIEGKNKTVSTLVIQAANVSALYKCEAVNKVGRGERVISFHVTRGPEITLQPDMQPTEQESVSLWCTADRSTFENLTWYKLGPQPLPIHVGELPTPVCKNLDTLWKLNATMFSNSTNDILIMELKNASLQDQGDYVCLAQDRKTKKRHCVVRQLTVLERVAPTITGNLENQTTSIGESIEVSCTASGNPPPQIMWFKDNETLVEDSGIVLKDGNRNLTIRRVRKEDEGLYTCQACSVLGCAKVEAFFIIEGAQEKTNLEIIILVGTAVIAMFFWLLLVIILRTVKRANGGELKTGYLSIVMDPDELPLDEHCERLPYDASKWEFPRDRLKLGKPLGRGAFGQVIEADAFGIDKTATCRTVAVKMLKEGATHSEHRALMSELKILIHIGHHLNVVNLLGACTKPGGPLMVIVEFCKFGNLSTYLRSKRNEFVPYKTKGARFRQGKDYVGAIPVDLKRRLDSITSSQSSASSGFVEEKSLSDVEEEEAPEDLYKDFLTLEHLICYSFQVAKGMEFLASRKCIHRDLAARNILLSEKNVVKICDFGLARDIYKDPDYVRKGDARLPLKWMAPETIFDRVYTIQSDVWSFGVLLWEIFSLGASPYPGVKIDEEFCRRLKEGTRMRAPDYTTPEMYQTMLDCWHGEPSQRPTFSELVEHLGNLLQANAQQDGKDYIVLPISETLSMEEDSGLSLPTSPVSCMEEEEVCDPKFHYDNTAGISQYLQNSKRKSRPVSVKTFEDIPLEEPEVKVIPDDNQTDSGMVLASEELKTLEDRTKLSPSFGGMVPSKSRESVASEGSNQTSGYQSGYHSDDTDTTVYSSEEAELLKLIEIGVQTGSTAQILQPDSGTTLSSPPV
# T3 sequence (P00533 25-1210): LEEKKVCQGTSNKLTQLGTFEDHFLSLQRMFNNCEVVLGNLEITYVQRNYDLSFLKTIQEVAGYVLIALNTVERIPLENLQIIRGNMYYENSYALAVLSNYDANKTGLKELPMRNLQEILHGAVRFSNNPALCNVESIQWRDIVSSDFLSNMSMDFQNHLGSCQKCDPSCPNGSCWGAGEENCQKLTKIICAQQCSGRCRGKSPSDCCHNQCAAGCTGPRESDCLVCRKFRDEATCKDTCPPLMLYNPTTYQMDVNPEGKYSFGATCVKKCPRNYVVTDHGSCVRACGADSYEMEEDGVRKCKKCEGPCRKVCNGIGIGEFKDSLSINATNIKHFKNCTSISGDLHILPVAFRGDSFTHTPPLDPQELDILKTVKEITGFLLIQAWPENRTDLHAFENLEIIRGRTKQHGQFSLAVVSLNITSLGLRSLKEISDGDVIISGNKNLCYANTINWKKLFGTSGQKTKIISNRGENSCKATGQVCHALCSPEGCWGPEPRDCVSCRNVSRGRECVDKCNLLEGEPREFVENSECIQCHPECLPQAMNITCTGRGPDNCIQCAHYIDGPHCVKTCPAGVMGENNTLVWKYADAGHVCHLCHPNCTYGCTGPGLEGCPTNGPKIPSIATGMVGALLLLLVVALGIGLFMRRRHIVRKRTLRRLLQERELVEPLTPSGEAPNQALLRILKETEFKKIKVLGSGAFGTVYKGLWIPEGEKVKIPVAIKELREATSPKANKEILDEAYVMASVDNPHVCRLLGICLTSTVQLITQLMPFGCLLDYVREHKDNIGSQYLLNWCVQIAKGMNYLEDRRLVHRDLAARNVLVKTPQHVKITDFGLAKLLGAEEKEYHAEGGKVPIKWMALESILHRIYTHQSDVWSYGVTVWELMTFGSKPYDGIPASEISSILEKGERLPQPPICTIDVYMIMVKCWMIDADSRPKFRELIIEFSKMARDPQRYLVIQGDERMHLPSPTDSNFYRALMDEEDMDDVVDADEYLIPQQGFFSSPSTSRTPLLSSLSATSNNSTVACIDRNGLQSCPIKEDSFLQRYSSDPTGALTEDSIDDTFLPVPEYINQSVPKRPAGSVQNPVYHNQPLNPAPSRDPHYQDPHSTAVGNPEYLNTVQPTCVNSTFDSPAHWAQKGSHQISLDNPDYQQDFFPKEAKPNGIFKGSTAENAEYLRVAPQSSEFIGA
# T1 sequence (P04626 676-1255): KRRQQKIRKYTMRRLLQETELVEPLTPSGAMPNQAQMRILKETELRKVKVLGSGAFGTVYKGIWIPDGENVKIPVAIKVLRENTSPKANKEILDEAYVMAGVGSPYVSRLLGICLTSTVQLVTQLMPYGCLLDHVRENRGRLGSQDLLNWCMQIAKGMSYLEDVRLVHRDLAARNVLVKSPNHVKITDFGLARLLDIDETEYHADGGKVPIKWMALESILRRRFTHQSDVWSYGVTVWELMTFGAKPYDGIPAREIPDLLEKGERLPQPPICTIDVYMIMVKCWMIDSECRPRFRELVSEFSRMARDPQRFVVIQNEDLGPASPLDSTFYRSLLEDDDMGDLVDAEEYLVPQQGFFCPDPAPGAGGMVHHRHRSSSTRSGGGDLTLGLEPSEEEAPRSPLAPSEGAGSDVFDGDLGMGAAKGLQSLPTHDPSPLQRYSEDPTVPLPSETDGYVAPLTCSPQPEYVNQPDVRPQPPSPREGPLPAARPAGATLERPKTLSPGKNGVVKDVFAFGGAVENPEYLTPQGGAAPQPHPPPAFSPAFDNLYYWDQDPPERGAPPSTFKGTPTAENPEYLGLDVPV
compound,measurement,setting,value
"O=C1CCc2c(Oc3ccc4c(c3)[C@@H]3[C@H](O4)[C@H]3c3nc4ccc(C(F)(F)F)cc4[nH]3)ccnc2N1 [5-(((1R,1aS,6bR)-1-(6-(trifluoromethyl)-1H-benzo[d]imidazol-2-yl)-1a,6b-dihydro-1H-cyclopropa[b]benzofuran-5-yl)oxy)-3,4-dihydro-1,8-naphthyridin-2(1H)-one sesqui-maleate salt]",TRS %,[1]; 0 day,0.08%
same,TRS %,"[1]; 40° C./75% RH, 1 week",0.10%
same,TRS %,"[1]; 60° C., 1 week",0.17%
same,chemical degradation,[1]; after one week at 60° C. and 40° C./75% RH,did not show degradations
same,appearance by visual observation,[1]; both conditions after 1 week,no change
same,enzyme inhibition,[2],weak inhibition
same,pIC50,[2]; ATP at KM,5.59
same,enzyme inhibition,[3],potently inhibits
same,pIC50,[3]; ATP at KM,7.66
same,enzyme inhibition,[4]; EGFR,potently inhibits
same,pIC50,"[4]; WT-EGFR, ATP at KM",7.36
same,pIC50,[5],7.49
same,pIC50,[6],7.28
same,pIC50,[7],6.99
same,pIC50,[8],7.11
same,"teratogenic, mutagenic and reproductive toxicity",[9]; additional toxicity testing,"no teratogenic, mutagenic and reproductive toxicity"
same,toxicology and safety pharmacology profile,[9]; incl. 28-day GLP studies in rats and dogs,favorable toxicology and safety pharmacology profile
same,effect on autonomic nervous system activity or the central nervous system,[9]; safety pharmacological test,no effect
same,"effect on respiration, blood pressure and circulatory function",[9]; safety pharmacological test,no effect
same,bioavailability,"[10]; beagle, dog, in vivo, po",41 to 82%
same,half-life,"[10]; beagle, dog, in vivo, after oral administration, read-out: elimination half-life",3.3 to 4.9 h
same,accumulation after multiple dosing,[10],No accumulation
same,kinetics over dose range,[10]; 1.5 to 15 mg/kg,linear
same,induction effect on P450 enzymes,[11],No significant induction effect
same,inhibitory activity on drug metabolism enzymes,[12],no inhibitory activity
same,clinical safety of single doses,[13],safe and well tolerated
